Here are results for 15 compounds from PubChem BioAssay (NCI).

Values joined by “and” are separate entries in the source; they are usually repeats but may differ in a detail not shown here. Identical values can stand only once.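 The compound was tested at five concentrations on cells cultured in 96-well plates, with a 48-hour exposure period. GI50 marks 50% less growth. The concentration for full growth arrest is given as TGI.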

Among the test systems are HOP-62 NSCLC; HL-60(TB) leukemia; UACC-257 melanoma; NCI-H23 lung; SR leukemia; A498 renal; SK-MEL-5 melanoma; HOP-92 NSCLC; DU-145 prostate; HCC-2998 colon.
Holding throughout (assay): NCI-60 cell line screen, 48 h

Take `COc1ccc(-c2cn3ccnc3c(-c3ccc(Cl)cc3)n2)cc1`: the GI50 in the assay on HOP-62 NSCLC is 16.3 µM; in the assay on HL-60(TB) leukemia, 5.14 µM; with UACC-257 melanoma, 6.81 µM; in the assay on NCI-H23 lung, 4.71 µM; with SR leukemia, 1.71 µM; in the assay with A498 renal, 2.31 µM. Moreover, the results for the GI50 in the assay on SK-MEL-5 melanoma, in the assay with HOP-92 NSCLC and with DU-145 prostate were 4.06 µM, 10.2 µM and 11.7 µM, respectively. In addition, the TGI was over 100 µM in the assay on HOP-62 NSCLC; over 100 µM in the assay with HL-60(TB) leukemia; 48 µM with UACC-257 melanoma; 40.3 µM in the assay with NCI-H23 lung; over 100 µM with SR leukemia; 9.87 µM with A498 renal. Besides, the TGI in the assay on SK-MEL-5 melanoma was 21.1 µM; in the assay on HOP-92 NSCLC, 48.4 µM; in the assay on DU-145 prostate, over 100 µM.

Take `CSCc1ncc(-c2ccc(C(F)(F)F)cc2)c(NC2CCCCCC2)n1`: the GI50 in the assay on HOP-62 NSCLC, in the assay on HL-60(TB) leukemia, in the assay with UACC-257 melanoma, in the assay with NCI-H23 lung, in the assay with SR leukemia and in the assay on A498 renal was over 10 µM each time. The GI50 in the assay on SK-MEL-5 melanoma, in the assay with DU-145 prostate and in the assay with HCC-2998 colon was over 10 µM throughout. The TGI in the assay on HOP-62 NSCLC, in the assay with HL-60(TB) leukemia, with UACC-257 melanoma, in the assay with NCI-H23 lung, in the assay with SR leukemia and in the assay with A498 renal was over 10 µM throughout. Besides, the TGI in the assay with SK-MEL-5 melanoma, in the assay with DU-145 prostate and with HCC-2998 colon was over 10 µM each time.

Consider `CCOc1ccc2cc(-c3nn(CC4CCN(C)CC4)c4ncnc(N)c34)ccc2c1`, for which the GI50 is 15.7 µM in the assay on HL-60(TB) leukemia; 14.7 µM in the assay with UACC-257 melanoma; 15.1 µM in the assay on NCI-H23 lung; 3.63 µM with SR leukemia; 11.8 µM with A498 renal; 15.8 µM in the assay with SK-MEL-5 melanoma. In addition, the GI50 in the assay with HOP-92 NSCLC was 5.9 µM; with DU-145 prostate it was 28.4 µM; in the assay on HCC-2998 colon, 17.1 µM. In addition, the TGI in the assay on HL-60(TB) leukemia came to 34.6 µM; with UACC-257 melanoma, 30.2 µM; with NCI-H23 lung it was 41.6 µM; with SR leukemia, 18 µM; in the assay on A498 renal, 25.2 µM; with SK-MEL-5 melanoma it was 29.3 µM. The TGI was 26.1 µM with HOP-92 NSCLC, over 100 µM in the assay with DU-145 prostate and 32 µM with HCC-2998 colon.

In the case of `Cc1cc(C)nc(NC(=O)COc2ccc(Cl)cc2)c1`, the TGI with HOP-62 NSCLC, with UACC-257 melanoma, in the assay on NCI-H23 lung, in the assay on SR leukemia, in the assay on A498 renal and in the assay with SK-MEL-5 melanoma was over 100 µM throughout. Also, the TGI in the assay on HOP-92 NSCLC and with DU-145 prostate was over 100 µM throughout.

As for `COc1ccc(N=c2nc3sc4cc(Cl)ccc4n3c(N)c2C#N)cc1`, the GI50 in the assay with HOP-62 NSCLC was 4.84 µM; in the assay on HL-60(TB) leukemia it was 11.4 µM; in the assay with UACC-257 melanoma, 35.4 µM; with NCI-H23 lung, 2.49 µM; with SR leukemia it was 8.49 µM; in the assay with A498 renal, 2.64 µM. Moreover, the values for the GI50 in the assay with SK-MEL-5 melanoma, with HOP-92 NSCLC and in the assay with DU-145 prostate were 1.64 µM, 26.5 µM and 35.8 µM, respectively. For the same compound, the TGI in the assay on HOP-62 NSCLC is over 100 µM; in the assay on HL-60(TB) leukemia, over 94.9 µM; in the assay with UACC-257 melanoma it was over 100 µM; in the assay with NCI-H23 lung, 20.5 µM; in the assay with SR leukemia, over 84.8 µM; in the assay on A498 renal, 7.05 µM. The TGI in the assay on SK-MEL-5 melanoma was 3.42 µM; in the assay with HOP-92 NSCLC, over 88.6 µM; in the assay on DU-145 prostate it was over 100 µM.

Take `COc1c(OC2OC(C)C(O)C(O)C2O)c(OC)c2oc(-c3ccc(O)cc3)cc(=O)c2c1O` (centres undefined): the GI50 in the assay with HOP-62 NSCLC was 35.1 µM; in the assay on UACC-257 melanoma, 3.97 µM; in the assay on NCI-H23 lung it was 20.6 µM; in the assay on SR leukemia, 19.7 µM; with A498 renal, 35.4 µM; with SK-MEL-5 melanoma it was 35.4 µM. Also, the GI50 with DU-145 prostate is 24.1 µM; with HCC-2998 colon it was 37.2 µM. For the same compound, the TGI with HOP-62 NSCLC is over 100 µM; in the assay on UACC-257 melanoma it was 28.1 µM; in the assay on NCI-H23 lung, 57.1 µM; with SR leukemia it was 93.5 µM; with A498 renal, over 100 µM; with SK-MEL-5 melanoma, over 100 µM. The TGI in the assay on DU-145 prostate was 52.8 µM; in the assay on HCC-2998 colon it was over 100 µM.

In the case of `CN(CCOc1ccc(NS(C)(=O)=O)cc1)CCc1ccc(NS(C)(=O)=O)cc1`, the GI50 with HOP-62 NSCLC was over 100 µM; in the assay with HL-60(TB) leukemia, over 100 µM; with NCI-H23 lung, over 100 µM; in the assay with SR leukemia, over 100 µM; with A498 renal, 96 µM; with HOP-92 NSCLC, over 100 µM. Further, the GI50 in the assay on DU-145 prostate and with HCC-2998 colon was over 100 µM each time. In addition, the TGI in the assay on HOP-62 NSCLC, with HL-60(TB) leukemia, in the assay on NCI-H23 lung, with SR leukemia, in the assay on A498 renal and with HOP-92 NSCLC was over 100 µM throughout. The TGI in the assay with DU-145 prostate and in the assay on HCC-2998 colon was over 100 µM each time.

Turning to `O=C(O)C(Cc1ccccc1)N1C(=O)/C(=C/C(Cl)=C/c2ccc([N+](=O)[O-])cc2)SC1=S` (centres undefined), the GI50 is 2.31 µM in the assay with HOP-62 NSCLC; 1.97 µM with UACC-257 melanoma; 2.13 µM in the assay with NCI-H23 lung; 2.45 µM with SR leukemia; 1.65 µM in the assay with A498 renal; 1.68 µM in the assay on SK-MEL-5 melanoma. Besides, the GI50 was 2.35 µM in the assay with HOP-92 NSCLC, 2.06 µM in the assay with DU-145 prostate and 1.96 µM in the assay on HCC-2998 colon. The TGI with HOP-62 NSCLC is 6.75 µM; in the assay with UACC-257 melanoma, 4.95 µM; with NCI-H23 lung it was 4.86 µM; in the assay with SR leukemia, over 100 µM; in the assay with A498 renal it was 3.24 µM; in the assay on SK-MEL-5 melanoma, 3.06 µM. Also, the TGI in the assay with HOP-92 NSCLC stood at 5.71 µM; in the assay on DU-145 prostate, 4.56 µM; with HCC-2998 colon, 3.5 µM.

Turning to `CCOC1=C/C(=N\Nc2ccc([N+](=O)[O-])cc2)CCC1`, the TGI in the assay with HOP-62 NSCLC was over 100 µM; in the assay on HL-60(TB) leukemia, over 100 µM; with UACC-257 melanoma, over 100 µM; in the assay with NCI-H23 lung, 94.1 µM; in the assay on SR leukemia, over 100 µM; in the assay with A498 renal, over 100 µM. Also, the TGI in the assay with SK-MEL-5 melanoma is 73.3 µM; with HOP-92 NSCLC it was over 100 µM; in the assay with DU-145 prostate it was over 100 µM.

Turning to `CCCC(=O)Nc1cc(/C=C/C(=O)N2C[C@@H]3C[C@]34C2=CC(=O)c2[nH]cc(C)c24)n(C)c1`, the TGI with HOP-62 NSCLC is 25 µM; in the assay with NCI-H23 lung, 0.645 µM and 0.0939 µM; with SR leukemia it was 0.0709 µM; in the assay on A498 renal, 0.689 µM and 0.478 µM; with SK-MEL-5 melanoma, 0.334 µM; in the assay on HOP-92 NSCLC it was 1.96 µM and 0.741 µM. For the same compound, the TGI in the assay on HCC-2998 colon was 0.687 µM and 0.37 µM. Moreover, the GI50 is 0.0119 µM in the assay with NCI-H23 lung, 0.282 µM in the assay on HOP-92 NSCLC, 0.0252 µM in the assay on DU-145 prostate and 0.114 µM in the assay with HCC-2998 colon.

On to `O=C(O)CCN1C(=S)CSC1=S`, for which the TGI in the assay with HOP-62 NSCLC, with UACC-257 melanoma, in the assay with NCI-H23 lung, with SR leukemia, in the assay on A498 renal and with SK-MEL-5 melanoma was over 100 µM throughout. The TGI with HOP-92 NSCLC and with DU-145 prostate was over 100 µM throughout.

Turning to `CC(=O)/C(=N\N=C(N)N)c1ccccc1`, the TGI with HOP-62 NSCLC, in the assay with UACC-257 melanoma, with NCI-H23 lung, in the assay with SR leukemia, in the assay with A498 renal and with SK-MEL-5 melanoma was over 100 µM throughout. Further, the TGI in the assay on HOP-92 NSCLC, in the assay on DU-145 prostate and in the assay with HCC-2998 colon was over 100 µM each time.

As for `C=C(CN1CCN(c2ccccn2)CC1)c1ccc(C(=O)Nc2ccccc2N)cc1`, the GI50 was 1.32 µM with HOP-62 NSCLC; 2.2 µM in the assay with HL-60(TB) leukemia; 2.32 µM with UACC-257 melanoma; 0.939 µM in the assay on NCI-H23 lung; 5.33 µM with SR leukemia; 0.726 µM in the assay with SK-MEL-5 melanoma. Also, the results for the GI50 with HOP-92 NSCLC, in the assay with DU-145 prostate and in the assay with HCC-2998 colon were 5.7 µM, 2.52 µM and 0.664 µM, respectively. Further, the TGI was over 50 µM in the assay on HOP-62 NSCLC; over 50 µM in the assay with HL-60(TB) leukemia; over 50 µM in the assay on UACC-257 melanoma; 2.44 µM with NCI-H23 lung; over 50 µM in the assay with SR leukemia; 1.75 µM in the assay on SK-MEL-5 melanoma. Besides, the TGI turned out to be 23.1 µM with HOP-92 NSCLC, 18.5 µM in the assay with DU-145 prostate and 1.94 µM in the assay on HCC-2998 colon.

For `COc1ccc(CN2c3ccccc3Sc3ccccc32)cc1O`, the GI50 in the assay on HOP-62 NSCLC was 0.384 µM; with HL-60(TB) leukemia, 0.257 µM; in the assay on NCI-H23 lung, 0.364 µM; with SR leukemia, 0.407 µM; with A498 renal, 2.71 µM; in the assay on SK-MEL-5 melanoma, 0.438 µM. Further, the GI50 was 0.502 µM in the assay on HOP-92 NSCLC, 0.374 µM in the assay on DU-145 prostate and 0.422 µM with HCC-2998 colon. The TGI with HOP-62 NSCLC was 17.4 µM; in the assay with HL-60(TB) leukemia, 0.661 µM; in the assay with NCI-H23 lung, 13.2 µM; with SR leukemia, 30.7 µM; in the assay on A498 renal it was 19 µM; in the assay with SK-MEL-5 melanoma, 11.3 µM. Moreover, the figures for the TGI with HOP-92 NSCLC, with DU-145 prostate and in the assay with HCC-2998 colon were 17.5 µM, 15 µM and 10.7 µM, respectively.

For `CN1C2C=CC(=O)C1C(C#N)C2` (centres undefined), the TGI was over 100 µM in the assay with HOP-62 NSCLC; 43.7 µM and > 100 µM in the assay with HL-60(TB) leukemia; 87.9 µM and > 100 µM in the assay on NCI-H23 lung; 81 µM and > 100 µM in the assay with SR leukemia; over 100 µM in the assay with A498 renal; over 100 µM in the assay on SK-MEL-5 melanoma. The TGI in the assay on HOP-92 NSCLC was 57.7 µM and 93.5 µM; with DU-145 prostate, over 100 µM; in the assay on HCC-2998 colon, over 100 µM. For the same compound, the GI50 in the assay on SR leukemia was 22.7 µM and 61.6 µM; in the assay on HCC-2998 colon, 32.4 µM and 74.9 µM.
